Laboratory results as given in patent publication EP3064205A1, “Therapeutic use of isomeric forms of 2-(4-chlorophenyl)quinolin-4-yl)(piperidin-2-yl)methanol” (Glionova AB, priority 2015, dated 2016).
Like-named read-outs stand apart in the source and are kept apart here.

How the values were obtained:
Test in all cases: 3D clonogenic assay (PDX)
Type in all cases: cell-based, human
BXF 1036 = conditions: BXF 1036, Bladder; for IC50: Homo sapiens
Outline: (§1)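 Ex vivo clonogenic growth of patient-derived xenograft cells in a three-layer soft-agar system, IMDM with 20% FCS. Continuous exposure at ten half-log concentrations from 50 µM, in duplicate. Colonies were counted at maximal formation after 8–13 days.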

BXF 439 = conditions: BXF 439, Bladder; for IC50: Homo sapiens
Outline: as §1

GXF 97 = conditions: GXF 97, Gastric; for IC50: Homo sapiens
Outline: as §1

LXFA 289 = conditions: LXFA 289, Lung Adeno; for IC50: Homo sapiens
Outline: as §1

LXFA 623 = conditions: LXFA 623, Lung Adeno; for IC50: Homo sapiens
Outline: as §1

LXFL 1121 = conditions: LXFL 1121, Lung Large Cell; for IC50: Homo sapiens
Outline: as §1

LXFL 1674 = conditions: LXFL 1674, Lung Large Cell; for IC50: Homo sapiens
Outline: as §1

MAXF 1322 = conditions: MAXF 1322, Breast; for IC50: Homo sapiens
Outline: as §1

PAXF 1872 = conditions: PAXF 1872, Pancreas; for IC50: Homo sapiens
Outline: as §1

PAXF 2005 = conditions: PAXF 2005, Pancreas; for IC50: Homo sapiens
Outline: as §1

PAXF 546 = conditions: PAXF 546, Pancreas; for IC50: Homo sapiens, PAXF546
Outline: as §1

PXF 537 = conditions: PXF 537, Pleuramesothelioma; for IC50: Homo sapiens
Outline: as §1

IC50 (BXF 1036; read-out: abs. IC50): 5.3 µM
IC50 (BXF 1036; read-out: rel. IC50): 5 µM
IC50 (BXF 439; read-out: abs. IC50): 14 µM
IC50 (BXF 439; read-out: rel. IC50): 12.8 µM
IC50 (GXF 97; read-out: abs. IC50): 6.21 µM
IC50 (GXF 97; read-out: rel. IC50): 5.71 µM
IC50 (LXFA 289; read-out: abs. IC50): 45.4 µM
IC50 (LXFA 289; read-out: rel. IC50): 39.3 µM
IC50 (LXFA 623; read-out: abs. IC50): 4.63 µM
IC50 (LXFA 623; read-out: rel. IC50): 4.62 µM
IC50 (LXFL 1121; read-out: abs. IC50): 8.66 µM
IC50 (LXFL 1121; read-out: rel. IC50): 8.61 µM
IC50 (LXFL 1674; read-out: abs. IC50): 6.68 µM
IC50 (LXFL 1674; read-out: rel. IC50): 6.59 µM
IC50 (MAXF 1322; read-out: abs. IC50): 4.77 µM
IC50 (MAXF 1322; read-out: rel. IC50): 3.82 µM
IC50 (PAXF 1872; read-out: abs. IC50): 9.3 µM
IC50 (PAXF 1872; read-out: rel. IC50): 8.89 µM
IC50 (PAXF 2005; read-out: abs. IC50): 9.16 µM
IC50 (PAXF 2005; read-out: rel. IC50): 9.06 µM
IC50 (PAXF 546; read-out: abs. IC50): 9.22 µM
IC50 (PAXF 546; read-out: rel. IC50): 9.07 µM
IC50 (PXF 537; read-out: abs. IC50): 8.67 µM
IC50 (PXF 537; read-out: rel. IC50): 8.63 µM
SMILES: O[C@H](c1cc(-c2ccc(Cl)cc2)nc2ccccc12)[C@@H]1CCCCN1 [S1, (R)-(2-(4-chlorophenyl)quinolin-4-yl)((S)-piperidin-2-yl)methanol]
b (bottom plateau of concentration-effect curve) (BXF 1036): 30
t (top plateau of concentration-effect curve) (BXF 1036): 95
b (bottom plateau of concentration-effect curve) (BXF 439): 34
t (top plateau of concentration-effect curve) (BXF 439): 95
b (bottom plateau of concentration-effect curve) (GXF 97): 20
t (top plateau of concentration-effect curve) (GXF 97): 97
b (bottom plateau of concentration-effect curve) (LXFA 289): 21
t (top plateau of concentration-effect curve) (LXFA 289): 94
b (bottom plateau of concentration-effect curve) (LXFA 623): 10
t (top plateau of concentration-effect curve) (LXFA 623): 92
b (bottom plateau of concentration-effect curve) (LXFL 1121): 9
t (top plateau of concentration-effect curve) (LXFL 1121): 101
b (bottom plateau of concentration-effect curve) (LXFL 1674): 9
t (top plateau of concentration-effect curve) (LXFL 1674): 93
b (bottom plateau of concentration-effect curve) (MAXF 1322): 21
t (top plateau of concentration-effect curve) (MAXF 1322): 93
b (bottom plateau of concentration-effect curve) (PAXF 1872): 42
t (top plateau of concentration-effect curve) (PAXF 1872): 89
b (bottom plateau of concentration-effect curve) (PAXF 2005): 11
t (top plateau of concentration-effect curve) (PAXF 2005): 106
b (bottom plateau of concentration-effect curve) (PAXF 546): 25
t (top plateau of concentration-effect curve) (PAXF 546): 96
b (bottom plateau of concentration-effect curve) (PXF 537): 24
t (top plateau of concentration-effect curve) (PXF 537): 80
